Values after ≈ are worked out from the molar mass of the structure shown.
Experiments:
[1] = Solubility of PFOCs in olive oil lipids; assay type: physicochemical; conditions: oil or lipid, 37° C.
[2] = Solubility of PFOCs in membranes of erythrocytes; assay type: physicochemical; conditions: 37° C.

Compound | solubility [1] [mM] | Solubility in membranes [2]
FC(F)(F)C1(F)C(F)(F)C(F)(F)C(F)(N2C(F)(F)C(F)(F)C(F)(F)C(F)(F)C2(F)F)C(F)(F)C1(F)F (centres unmarked) [perfluoro-N-(4-methylcyclohexyl)-piperidine] | 7.6 (≈ 4520 µg/mL) | 0.5 ml per kg of dry membranes
FC(F)(F)C(F)(F)C(F)(F)C(F)(F)N(C(F)(F)C(F)(F)C(F)(F)C(F)(F)F)C(F)(F)C(F)(F)C(F)(F)C(F)(F)F [Perfluorotributylamine] | 1.2 (≈ 805 µg/mL) | 0.08 ml per kg of dry membranes
FC(F)(F)C(F)(F)C(F)(F)N(C(F)(F)C(F)(F)C(F)(F)F)C(F)(F)C(F)(F)C(F)(F)F [Perfluorotripropylamine] | 5.1 (≈ 2660 µg/mL) | 0.3 ml per kg of dry membranes
FC1(F)C(F)(F)C(F)(F)C2(F)C(F)(F)C(F)(F)C(F)(F)C(F)(F)C2(F)C1(F)F (centres unmarked) [Perfluorodecalin (PFD), perfluorodecalin] | 26 (≈ 12000 µg/mL) | 2.0 ml per kg of dry membranes
